Measured values: patent US5155209A, “R-(+) enantiomeric form of 7-(2, 3-epoxypropoxy) actinomycin D” (priority 1991, dated 1992)
Numbered stars: 1 amine (or outer) side, 2 acyl side, 3 side chain; on linkers, the order of the positions; unused ones are H or OH. Bridge positions count the residues as written; N and C are the ends. Square brackets hold non-standard residues; d marks the D form. Peptide text beside a SMILES is read from it. I, II: the chains in the order shown. Actinocin(9to1) = Cc1c2oc3c(C)ccc(C(=O)[*:1])c3nc-2c(C(=O)[*:2])c(N)c1=O; NMeV = CN[C@H](C(=O)O)C(C)C; Sar = CNCC(=O)O

Tests used:
leukemia L1210 = test: Activity in mice bearing leukemia L1210; assay type: in vivo; conditions: L1210 ip in CDF1 mouse; for OD (optimal dose): ip days 1, 5, 9; for % ILS (percent increase in median life span) / (surv) number of over 60 days survivors/number of animals tested: ip days 1, 5, 9, at optimal dose
From the text: ^e OD, optimal dose of drugs in milligrams/killograms per injection,
administered ip on days 1, 5, and 9, following ip inoculation with
^f % ILS, percent increase in median life span in days, of the
tumorbearing drugtreated dying animals when compared with similar tumor
bearing mice but not treated with drugs. (surv), number of over 60 days
survivors/number of animals tested.

P388/ADR [1] = test: Antitumor activity against ip implanted P388/ADR in CDF1 mice; assay type: in vivo; set-up: OD (optimal dose of drugs): unit not given here; conditions: for % ILS (percent increase in median life time vs controls) / (surv) number of 60 days survivors/number of animals tested / MST (median survival time): ip qd 1-9, at optimal dose; for OD (optimal dose of drugs): treated ip qd 1-9
Method: ^e Optimal dose of drugs.
^ f Median survival time of tumor bearing mice.
^g Percent increase in median life time in days of drugtreated dying
animals vs those of controls; (survivors), number of 60 days
survivors/number of animals tested in the group.
In order to examine a broader spectrum of activity, these optical isomers are tested in two other mouse leukemia cell lines in vivo. One cell line, P388/ADR, is a derivative of the above P388/S made resistant to intercalating agents like […].

CCRF-CEM [2] = test: In vitro growth inhibition of CCRF-CEM human lymphoblastic leukemia cells; assay type: cell-based; conditions: purer (90%) form of isomers
Method: (§1) The analogues are assayed for in vitro growth inhibitory activity against several experimental tumor lines including human and murine leukemia, mouse melanoma, and human lymphoblastic leukemia.

L1210 cells = test: Inhibition of growth of L1210 cells in culture; assay type: cell-based, Murine
Method: as §1

B16 melanoma [3] = test: B16 melanoma implanted sc, drug iv (sc-iv) in BDF1 mice; assay type: in vivo; conditions: for % ILS / MST (median survival time) / OD (optimal dose) / (surv) sixty day survivors/number of mice treated: B16 sc implanted; for % ILS / MST (median survival time) / (surv) sixty day survivors/number of mice treated: drug iv day 1; for OD (optimal dose): drug iv day 1, 0.1 mL vehicle
Method: (§2) Subcutaneously implanted B16 melanoma in BDF1 mice is a slow growing tumor, but its rate of growth becomes faster when it is implanted ip. […] This is not consistent with data in other tumors; however, in this connection it should be pointed out that the combined effects of drugs (or enantiomers in this case) can be manifested in several ways, i.e., they can be synergistic, additive, or subtractive.
(§3) 0.2 ml of brei (tumor weight/Hank's balanced salt solution, (1:5) of B16
(§4) implanted sc or ip into groups of nine BDF1 mice on day 0. Drugs
(§5) administered iv on day 1 or ip on days 1, 5, and 9, following tumor
(§6) administered ip on days 1, 5, and 9. OD, optimal dose in
(§7) milligrams/milliliter of vehicle, and administered iv or ip in 0.1 mL of
(§8) vehicle (5% v/v Me2 SOsaline). MST, median survival times in days of
(§9) tumor bearing and nondrug treated (control) or drugtreated mice. % ILS,
(§10) percent increase in life span of drug treated groups over the control
(§11) group of test animals, excluding survivors. (surv), number of sixty day
(§12) survivors/number of mice treated with drug.

B16 = test: Inhibition of growth in vitro of B16 cells; assay type: cell-based, mouse; conditions: actively growing tumor cells
Method: as §1

B16 melanoma [4] = test: B16 melanoma implanted ip, drug ip (ip-ip) in BDF1 mice; assay type: in vivo; conditions: for % ILS / MST (median survival time) / OD (optimal dose) / (surv) sixty day survivors/number of mice treated: B16 ip implanted; for % ILS / MST (median survival time) / (surv) sixty day survivors/number of mice treated: drug ip days 1, 5, 9; for OD (optimal dose): drug ip days 1, 5, 9, 0.1 mL vehicle
Method: as §2, §3, §4, §5, §6, §7, §8, §9, §10, §11, §12

C26 colon carcinoma = C26 colon carcinoma implanted in CDF1 mice, drug ip; assay type: in vivo; conditions: for % ILS / (surv) sixty day survivors/number of mice treated / MST: drug ip days 1, 5, 9; for OD (optimal dose): drug ip days 1, 5, 9, 0.1 mL vehicle
Method: implantation. Primary colon C26 carcinoma (tripan blue excluding, 2.5
× 10^5 cells/mouse) implanted in CDF1 mice on day 0; drug
as §6, §7, §8, §9, §10, §11, §12

P388/ADR [5] = test: Inhibition of growth in vitro of P388/ADR cells; assay type: cell-based, mouse; conditions: actively growing tumor cells
Method: as §1

[6] = cited from earlier work
purified calf thymus DNA = test: Covalent and noncovalent (intercalative) binding to calf thymus DNA, [DNA base]/[drug] ratios; conditions: 20 mM Tris-HCl pH 7.4, 37° C.
Method: ^b Binding to purified calf thymus DNA in 20 mM TrisHCl, ph 7.4 buffe
at 37° C.; A values are molar ratios of DNA to drug based on the
total amount of drug that is bound both intercalatively and covalently to
^c B values are similar ratios assayed on the basis of drugs bound
entirely by covalent bonding to DNA base.

[7] = tested on: RNA synthesis in L1210 cells; test: Inhibition of RNA synthesis in L1210 ([5-3H]uridine incorporation); assay type: cell-based, Murine; conditions: [5-3H]uridine incorporation into RNA; read-out: inhibition of synthesis of nucleic acids in L1210 IC50 RNA
Method: (§13) ^a Drug concentration (micromolor) for 50% reduction of incorporation
(§14) of [methyl^14 C]thymidine into DNA^b and [5^3 H] uridine into
(§15) RNA^c from the rate of incorporation of the same radionucleotides in
(§16) nondrug treated L1210 cells growing actively in vitro.
(§17) Inhibition of nucleic acid synthesis in L1210 lymphoid leukemia cells by (±)-EPA and it optical isomers are assayed. […] To achieve this, a digestion of the nucleic acid pellet with DNase-free RNase enzyme, prior to final pelleting of the DNA precipitate is made to ensure that no more than ±8% contamination from […] into DNA takes place, and for this the necessary correction is made in the data reported in Table V.

Calf Thymus DNA = test: Thermal denaturation (ΔTm) of DNA-drug complex; assay type: binding; conditions: 0.01 phosphate buffer pH 7.0, 5% Me2SO; in °C (unit assumed)
Method: ^a ΔTm = Tm of DNAdrug complex minus Tm of
drugfree DNA; concentration of drug 14.0 nM and that of DNA 70 nM in 0.01
phosphate buffer, pH 7.0, 5 × 10^3 EDTA and 5% Me2 SO.
DNA-binding experiments were carried out in 0.01M phosphate buffer (pH7), containing EDTA (10^-5 M).

[8] = tested on: DNA synthesis in L1210 cells; test: Inhibition of DNA synthesis in L1210 ([methyl-14C]thymidine incorporation); assay type: cell-based, Murine; conditions: [methyl-14C]thymidine incorporation into DNA; read-out: inhibition of synthesis of nucleic acids in L1210 IC50 DNA
Method: as §13, §14, §15, §16, §17

CCRF-CEM [9] = conditions: cited from earlier work
[10] = tested on: P388/S lymphocytic leukemia; conditions: cited from earlier work

SMILES | OD (optimal dose) (leukemia L1210) | % ILS (percent increase in median life span) (leukemia L1210) [%] | (surv) number of over 60 days survivors/number of animals tested (leukemia L1210) | % ILS (percent increase in median life time vs controls) (P388/ADR [1]) [%] | (surv) number of 60 days survivors/number of animals tested (P388/ADR [1]) | MST (median survival time) (P388/ADR [1]) [days] | OD (optimal dose of drugs) (P388/ADR [1]) | inhibition of growth of L1210 cells in culture; ID50 (L1210 cells) [µM] | % ILS (B16 melanoma [3]) [%] | MST (median survival time) (B16 melanoma [3]) [days] | OD (optimal dose) (B16 melanoma [3]) | inhibition of growth ID50 B16 (B16) [µM] | % ILS (B16 melanoma [4]) [%] | MST (median survival time) (B16 melanoma [4]) [days] | OD (optimal dose) (B16 melanoma [4]) | % ILS (C26 colon carcinoma) [%] | (surv) sixty day survivors/number of mice treated (C26 colon carcinoma) | MST (C26 colon carcinoma) [days] | OD (optimal dose) (C26 colon carcinoma) | inhibition of growth ID50 P388/ADR (P388/ADR [5]) [µM] | other results
Cc1c2oc3c(C)c(OCC4CO4)cc(C(=O)NC4C(=O)NC(C(C)C)C(=O)N5CCCC5C(=O)N(C)CC(=O)N(C)C(C(C)C)C(=O)OC4C)c3nc-2c(C(=O)NC2C(=O)NC(C(C)C)C(=O)N3CCCC3C(=O)N(C)CC(=O)N(C)C(C(C)C)C(=O)OC2C)c(N)c1=O [(S)-(-)-EPA, 7-(2,3-epoxypropoxy) actinomycin D] | 0.05 milligrams/killograms per inje | 143 | 1/9 | 377 | 5/10 | 43 | 0.80 | 0.0568 ± 0.0088 | 60 | 53.0 | 1.0 milligrams/milliliter of vehic | 0.0035 ± 0.001 | 74 | 33.0 | 0.30 milligrams/milliliter of vehic | 64 | 1/10 | 36.0 | 0.90 milligrams/milliliter of vehic | 0.135 ± 0.012 | 50% growth inhibitory dose (ID50) (CCRF-CEM [2]; listed as S-(-) isomer): 0.0035 µM
Cc1c2oc3c(C)ccc(C(=O)N[C@@H]4C(=O)N[C@H](C(C)C)C(=O)N5CCC[C@H]5C(=O)N(C)CC(=O)N(C)[C@@H](C(C)C)C(=O)O[C@@H]4C)c3nc-2c(C(=O)N[C@@H]2C(=O)N[C@H](C(C)C)C(=O)N3CCC[C@H]3C(=O)N(C)CC(=O)N(C)[C@@H](C(C)C)C(=O)O[C@@H]2C)c(N)c1=O [1b(AMD), Actinomycin D] (I: T[dV]P[Sar][NMeV] / II: T[dV]P[Sar][NMeV]; ester I:1-I:C, II:1-II:C; linker I:N-II:N via Actinocin(9to1)) | 0.025 milligrams/killograms per inje | 55 | 0/9 | 33 | 0/10 | 12 | 0.075 | 0.0601 ± 0.0098 | 36 | 45.0 | 0.9 milligrams/milliliter of vehic | 0.003 ± 0.001 | 52 | 29.0 | 0.25 milligrams/milliliter of vehic | 52 | 0/10 | 33.5 | 0.30 milligrams/milliliter of vehic | 2.5 ± 0.25 | 50% growth inhibitory dose (ID50) (CCRF-CEM [2]): 0.0125 µM; metabolism in vivo [6]: not metabolized in vivo; [DNA base]/[drug] A: molar ratio of DNA to drug, total drug bound intercalatively and covalently (purified calf thymus DNA): 26 ± 2; (surv) sixty day survivors/number of mice treated (B16 melanoma [3]): 0/9; activity against sc implanted B16 tumor, in words (B16 melanoma [3]; iv administered): only marginally active; IC50 [7]: 0.019 ± 0.006 µM; Tm (ΔTm = Tm of DNA-drug complex minus Tm of drug-free DNA) (Calf Thymus DNA): 7.1 ± 0.15; (surv) sixty day survivors/number of mice treated (B16 melanoma [4]): 0/9; activity against ip implanted B16 tumor, in words (B16 melanoma [4]; ip administered): only moderately active; IC50 [8]: 0.38 ± 0.028 µM
Cc1c2oc3c(C)c(OCC4CO4)cc(C(=O)NC4C(=O)NC(C(C)C)C(=O)N5CCCC5C(=O)N(C)CC(=O)N(C)C(C(C)C)C(=O)OC4C)c3nc-2c(C(=O)NC2C(=O)NC(C(C)C)C(=O)N3CCCC3C(=O)N(C)CC(=O)N(C)C(C(C)C)C(=O)OC2C)c(N)c1=O (racemic) [3b[(±)-EPA]] [7-(2,3-epoxypropoxy) actinomycin D] | 0.05 milligrams/killograms per inje | 186 | 2/9 | 344 | 4/10 | 40 | 0.65 | 0.0287 ± 0.0087 | 64 | 54.0 | 1.0 milligrams/milliliter of vehic | 0.0025 ± 0.0006 | 105 |  | 0.30 milligrams/milliliter of vehic | 64 | 0/10 | 36.0 | 0.60 milligrams/milliliter of vehic | 0.08 ± 0.011 | % ILS (percent increase in median life time vs controls) (P388/ADR [1]; listed as racemic EPA): 344%; (surv) number of 60 days survivors/number of animals tested (P388/ADR [1]; listed as racemic EPA): four out of 10; (surv) sixty day survivors/number of mice treated (B16 melanoma [3]): 0/9; IC50 [7]: 0.024 ± 0.004 µM; antitumor activity in CCRF-CEM cells in vitro (CCRF-CEM [9]): high antitumor activity; (surv) sixty day survivors/number of mice treated (B16 melanoma [4]): 2/9; IC50 [8]: 0.08 ± 0.019 µM; antitumor activity in P388/S mouse leukemia in vivo [10]: high antitumor activity
